{"source": "patent US4622244A", "about": "“Process for preparation of microcapsules” (The Washington University, priority 1984, dated 1986)", "key": {"[1]": {"test": "In vitro release/dissolution by end-over-end tumbling in phosphate buffer at 37° C.", "assay_type": "physicochemical"}, "[2]": {"test": "Solubility of cyclazocine in solvents (equilibration, solids content after solvent evaporation)", "assay_type": "physicochemical", "procedure": "For example, taking cyclazocine as the solid, injectable drug material, Table I summarizes the solubility data obtained for this drug in a number of solvents.\nAfter equilibration (20-30 min), one ml. of solution was transferred to a tared weighing dish and the solids content determined by solvent evaporation.\nIn particular, the aromatic solvents have little tendency to dissolve it at room temperature."}, "[3]": {"test": "Mouse tail-flick test, morphine challenge", "assay_type": "in vivo", "procedure": "Microcapsules (177-295 microns in size) so prepared were evaluated by the mouse tail-flick test procedure. Mice (groups of 6) were the test animals. The morphine challenge dose was 10 mg./kg. mouse; test animal response was measured 20 min. after morphine injection. As will be seen, the microcapsules caused more than 50% antagonism 28 days after injection both in the tests in which peanut oil was used as the suspending medium and in the tests where peanut oil plus aluminum monostearate was used as the suspending medium.\n*All injections (1 cc/100 g mouse) given through 18 gauge needle; Morphin\nchallenge dose: 10 mg/kg mouse; Capsule size: 177-295μ; Active content\nof capsules initially: 67 wt. %.\nSimilar studies were run with microcapsules (105 to 177 microns in size) of naltrexone free base (NFB) prepared in the same manner as the naltrexone pamoate microcapsules.\nchallenge dose: 10 mg/kg mouse; Capsule size: 105-177μ; Active content"}}, "note": "Like-named read-outs stand apart in the source and are kept apart here.", "data": [{"smiles": "C[C@H]1[C@H]2Cc3ccc(O)cc3[C@]1(C)CCN2CC1CC1", "note": "[cyclazocine, 3-(cyclopropylmethyl)-1,2,3,4,-5,6-hexahydro-6,11-dimethyl-2,6-methano-3-benzazocin-8-ol]", "values": [{"measurement": "Complete dissolution time of unencapsulated drug", "setting": "[1]; buffer pH 7.4", "result": "≤ 15", "unit": "min"}, {"measurement": "Complete dissolution time of unencapsulated drug", "setting": "[1]; same buffer, pH 7.0", "result": "≤ 15", "unit": "min"}, {"measurement": "solubility", "setting": "[2]; 25 acetone/75 ethanol (v/v), organic solvent or mixture, 25 acetone/75 ethanol (V/V), 25° C., read-out: Solubility", "result": 4540, "unit": "µg/mL"}, {"measurement": "solubility", "setting": "[2]; 50 acetone/50 ethanol (v/v), organic solvent or mixture, 50 acetone/50 ethanol (V/V), 25° C., read-out: Solubility", "result": 4700, "unit": "µg/mL"}, {"measurement": "solubility", "setting": "[2]; 75 acetone/25 ethanol (v/v), organic solvent or mixture, 75 acetone/25 ethanol (V/V), 25° C., read-out: Solubility", "result": 4740, "unit": "µg/mL"}, {"measurement": "solubility", "setting": "[2]; acetone, organic solvent or mixture, acetone, 25° C., read-out: Solubility", "result": 5100, "unit": "µg/mL"}, {"measurement": "solubility", "setting": "[2]; benzene, organic solvent or mixture, benzene, 25° C., read-out: Solubility", "result": 1400, "unit": "µg/mL"}, {"measurement": "solubility", "setting": "[2]; benzene, organic solvent or mixture, benzene, 50° C., read-out: Solubility", "result": 2400, "unit": "µg/mL"}, {"measurement": "solubility", "setting": "[2]; chloroform, organic solvent or mixture, chloroform, 25° C., read-out: Solubility", "result": 7600, "unit": "µg/mL"}, {"measurement": "solubility", "setting": "[2]; cyclohexane, 80° C.", "result": "Insoluble"}, {"measurement": "solubility", "setting": "[2]; decahydronaphthalene, organic solvent or mixture, decahydronaphthalene, 25° C., read-out: Solubility", "result": 1700, "unit": "µg/mL"}, {"measurement": "solubility", "setting": "[2]; decahydronaphthalene, organic solvent or mixture, decahydronaphthalene, 130° C., read-out: Solubility", "result": 3400, "unit": "µg/mL"}, {"measurement": "solubility", "setting": "[2]; ethanol, organic solvent or mixture, ethanol, 25° C., read-out: Solubility", "result": 6640, "unit": "µg/mL"}, {"measurement": "solubility", "setting": "[2]; ethanol, organic solvent or mixture, ethanol, 73° C., read-out: Solubility", "result": 52000, "unit": "µg/mL"}, {"measurement": "solubility", "setting": "[2]; ethyl acetate, organic solvent or mixture, ethyl acetate, 4° C., read-out: Solubility", "result": 2600, "unit": "µg/mL"}, {"measurement": "solubility", "setting": "[2]; ethyl acetate, organic solvent or mixture, ethyl acetate, 25° C., read-out: Solubility", "result": 6300, "unit": "µg/mL"}, {"measurement": "solubility", "setting": "[2]; ethyl acetate, organic solvent or mixture, ethyl acetate, 77° C., read-out: Solubility", "result": 45000, "unit": "µg/mL"}, {"measurement": "solubility", "setting": "[2]; isopropanol, organic solvent or mixture, isopropanol, 25° C., read-out: Solubility", "result": 26800, "unit": "µg/mL"}, {"measurement": "solubility", "setting": "[2]; isopropanol, organic solvent or mixture, isopropanol, 80° C., read-out: Solubility", "result": 26800, "unit": "µg/mL"}, {"measurement": "solubility", "setting": "[2]; methanol, organic solvent or mixture, methanol, 25° C., read-out: Solubility", "result": 18400, "unit": "µg/mL"}, {"measurement": "solubility", "setting": "[2]; methanol, organic solvent or mixture, methanol, 63° C., read-out: Solubility", "result": 33200, "unit": "µg/mL"}, {"measurement": "solubility", "setting": "[2]; methyl ethyl ketone, organic solvent or mixture, methyl ethyl ketone, 4° C., read-out: Solubility", "result": 9100, "unit": "µg/mL"}, {"measurement": "solubility", "setting": "[2]; methyl ethyl ketone, organic solvent or mixture, methyl ethyl ketone, 25° C., read-out: Solubility", "result": 16000, "unit": "µg/mL"}, {"measurement": "solubility", "setting": "[2]; methyl ethyl ketone, organic solvent or mixture, methyl ethyl ketone, 79° C., read-out: Solubility", "result": 59800, "unit": "µg/mL"}, {"measurement": "solubility", "setting": "[2]; n-butanol, organic solvent or mixture, n-butanol, 4° C., read-out: Solubility", "result": 4500, "unit": "µg/mL"}, {"measurement": "solubility", "setting": "[2]; n-butanol, organic solvent or mixture, n-butanol, 25° C., read-out: Solubility", "result": 15000, "unit": "µg/mL"}, {"measurement": "solubility", "setting": "[2]; n-butanol, organic solvent or mixture, n-butanol, 117° C., read-out: Solubility", "result": 215000, "unit": "µg/mL"}, {"measurement": "Solubility (in words)", "setting": "[2]; range of solvents, room temperature", "result": "relatively low solubility"}, {"measurement": "solubility", "setting": "[2]; toluene, organic solvent or mixture, toluene, 25° C., read-out: Solubility", "result": 1000, "unit": "µg/mL"}, {"measurement": "solubility", "setting": "[2]; toluene, organic solvent or mixture, toluene, 35° C., read-out: Solubility", "result": 1500, "unit": "µg/mL"}, {"measurement": "solubility", "setting": "[2]; toluene, organic solvent or mixture, toluene, 50° C., read-out: Solubility", "result": 4000, "unit": "µg/mL"}, {"measurement": "solubility", "setting": "[2]; toluene, organic solvent or mixture, toluene, 100° C., read-out: Solubility", "result": 15000, "unit": "µg/mL"}, {"measurement": "solubility", "setting": "[2]; xylene, organic solvent or mixture, xylene, 25° C., read-out: Solubility", "result": 1200, "unit": "µg/mL"}, {"measurement": "solubility", "setting": "[2]; xylene, organic solvent or mixture, xylene, 50° C., read-out: Solubility", "result": 1800, "unit": "µg/mL"}, {"measurement": "solubility", "setting": "[2]; xylene, organic solvent or mixture, xylene, 90° C., read-out: Solubility", "result": 17500, "unit": "µg/mL"}]}, {"smiles": "O=C1CC[C@@]2(O)[C@H]3Cc4ccc(O)c5c4[C@@]2(CCN3CC2CC2)[C@H]1O5", "note": "[NFB]", "values": [{"measurement": "% Antagonism", "setting": "[3]; 7 days, 40 mg unencapsulated NFB/kg mouse, peanut oil", "result": 80.0, "unit": "%"}, {"measurement": "% Antagonism", "setting": "[3]; 7 days, 40 mg unencapsulated NFB/kg mouse, peanut oil + 2 wt. % AIMS", "result": 54.1, "unit": "%"}, {"measurement": "% Antagonism", "setting": "[3]; 10 days, 40 mg unencapsulated NFB/kg mouse, peanut oil", "result": 39.7, "unit": "%"}, {"measurement": "% Antagonism", "setting": "[3]; 10 days, 40 mg unencapsulated NFB/kg mouse, peanut oil + 2 wt. % AIMS", "result": 69.5, "unit": "%"}, {"measurement": "% Antagonism", "setting": "[3]; 14 days, 40 mg unencapsulated NFB/kg mouse, peanut oil", "result": 21.8, "unit": "%"}, {"measurement": "% Antagonism", "setting": "[3]; 14 days, 40 mg unencapsulated NFB/kg mouse, peanut oil + 2 wt. % AIMS", "result": 48.0, "unit": "%"}, {"measurement": "% Antagonism", "setting": "[3]; 21 days, 40 mg unencapsulated NFB/kg mouse, peanut oil", "result": 8.1, "unit": "%"}, {"measurement": "% Antagonism", "setting": "[3]; 21 days, 40 mg unencapsulated NFB/kg mouse, peanut oil + 2 wt. % AIMS", "result": 15.2, "unit": "%"}]}, {"smiles": "O=C1CC[C@@]2(O)[C@H]3Cc4ccc(O)c5c4[C@@]2(CCN3CC2CC2)[C@H]1O5", "note": "[NP]", "values": [{"measurement": "% Antagonism", "setting": "[3]; 7 days, 40 mg unencapsulated NP/kg mouse, peanut oil", "result": 66.1, "unit": "%"}, {"measurement": "% Antagonism", "setting": "[3]; 7 days, 40 mg unencapsulated NP/kg mouse, peanut oil + 2 wt. % AIMS", "result": 88.3, "unit": "%"}, {"measurement": "% Antagonism", "setting": "[3]; 14 days, 40 mg unencapsulated NP/kg mouse, peanut oil", "result": 59.1, "unit": "%"}, {"measurement": "% Antagonism", "setting": "[3]; 14 days, 40 mg unencapsulated NP/kg mouse, peanut oil + 2 wt. % AIMS", "result": 52.9, "unit": "%"}, {"measurement": "% Antagonism", "setting": "[3]; 21 days, 40 mg unencapsulated NP/kg mouse, peanut oil", "result": 12.9, "unit": "%"}, {"measurement": "% Antagonism", "setting": "[3]; 21 days, 40 mg unencapsulated NP/kg mouse, peanut oil + 2 wt. % AIMS", "result": 11.2, "unit": "%"}, {"measurement": "% Antagonism", "setting": "[3]; 28 days, 40 mg unencapsulated NP/kg mouse, peanut oil", "result": 13.9, "unit": "%"}, {"measurement": "% Antagonism", "setting": "[3]; 28 days, 40 mg unencapsulated NP/kg mouse, peanut oil + 2 wt. % AIMS", "result": 18.4, "unit": "%"}]}]}
